# Measured values published in patent US9006450B2 (Boehringer Ingelheim International GmbH, priority 2010, dated 2015).
# Target: T1, human ACC2 (Homo sapiens, UniProt O00763)
# T1 construct: made in house; host or cells: insect cells (baculoviral expression system)
# Assay: ACC2 assay, spectrophotometric 384 well assay (NADH-linked, coupled lactate dehydrogenase/pyruvate kinase)
# Assay type: biochemical
# Conditions: ACC2 assay, hACC2 construct lacking 128 N-terminal amino acids, 25° C., 340 nm; read-out: IC50
# Summary of the method: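 Human ACC2 lacking N-terminal 128 aa, baculovirus/insect-cell expressed, anion-exchange purified; 100 mM Tris pH 7.5, 10 mM citrate, 25 mM KHCO3, 1% DMSO. Started with 200 μM NADH and acetyl-CoA plus 500 μM ATP; PK/LDH-coupled A340 decrease read 15 min at 25° C. IC50 by nonlinear fit of low-control-subtracted slopes.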
# T1 sequence (O00763 129-2458 limits assumed): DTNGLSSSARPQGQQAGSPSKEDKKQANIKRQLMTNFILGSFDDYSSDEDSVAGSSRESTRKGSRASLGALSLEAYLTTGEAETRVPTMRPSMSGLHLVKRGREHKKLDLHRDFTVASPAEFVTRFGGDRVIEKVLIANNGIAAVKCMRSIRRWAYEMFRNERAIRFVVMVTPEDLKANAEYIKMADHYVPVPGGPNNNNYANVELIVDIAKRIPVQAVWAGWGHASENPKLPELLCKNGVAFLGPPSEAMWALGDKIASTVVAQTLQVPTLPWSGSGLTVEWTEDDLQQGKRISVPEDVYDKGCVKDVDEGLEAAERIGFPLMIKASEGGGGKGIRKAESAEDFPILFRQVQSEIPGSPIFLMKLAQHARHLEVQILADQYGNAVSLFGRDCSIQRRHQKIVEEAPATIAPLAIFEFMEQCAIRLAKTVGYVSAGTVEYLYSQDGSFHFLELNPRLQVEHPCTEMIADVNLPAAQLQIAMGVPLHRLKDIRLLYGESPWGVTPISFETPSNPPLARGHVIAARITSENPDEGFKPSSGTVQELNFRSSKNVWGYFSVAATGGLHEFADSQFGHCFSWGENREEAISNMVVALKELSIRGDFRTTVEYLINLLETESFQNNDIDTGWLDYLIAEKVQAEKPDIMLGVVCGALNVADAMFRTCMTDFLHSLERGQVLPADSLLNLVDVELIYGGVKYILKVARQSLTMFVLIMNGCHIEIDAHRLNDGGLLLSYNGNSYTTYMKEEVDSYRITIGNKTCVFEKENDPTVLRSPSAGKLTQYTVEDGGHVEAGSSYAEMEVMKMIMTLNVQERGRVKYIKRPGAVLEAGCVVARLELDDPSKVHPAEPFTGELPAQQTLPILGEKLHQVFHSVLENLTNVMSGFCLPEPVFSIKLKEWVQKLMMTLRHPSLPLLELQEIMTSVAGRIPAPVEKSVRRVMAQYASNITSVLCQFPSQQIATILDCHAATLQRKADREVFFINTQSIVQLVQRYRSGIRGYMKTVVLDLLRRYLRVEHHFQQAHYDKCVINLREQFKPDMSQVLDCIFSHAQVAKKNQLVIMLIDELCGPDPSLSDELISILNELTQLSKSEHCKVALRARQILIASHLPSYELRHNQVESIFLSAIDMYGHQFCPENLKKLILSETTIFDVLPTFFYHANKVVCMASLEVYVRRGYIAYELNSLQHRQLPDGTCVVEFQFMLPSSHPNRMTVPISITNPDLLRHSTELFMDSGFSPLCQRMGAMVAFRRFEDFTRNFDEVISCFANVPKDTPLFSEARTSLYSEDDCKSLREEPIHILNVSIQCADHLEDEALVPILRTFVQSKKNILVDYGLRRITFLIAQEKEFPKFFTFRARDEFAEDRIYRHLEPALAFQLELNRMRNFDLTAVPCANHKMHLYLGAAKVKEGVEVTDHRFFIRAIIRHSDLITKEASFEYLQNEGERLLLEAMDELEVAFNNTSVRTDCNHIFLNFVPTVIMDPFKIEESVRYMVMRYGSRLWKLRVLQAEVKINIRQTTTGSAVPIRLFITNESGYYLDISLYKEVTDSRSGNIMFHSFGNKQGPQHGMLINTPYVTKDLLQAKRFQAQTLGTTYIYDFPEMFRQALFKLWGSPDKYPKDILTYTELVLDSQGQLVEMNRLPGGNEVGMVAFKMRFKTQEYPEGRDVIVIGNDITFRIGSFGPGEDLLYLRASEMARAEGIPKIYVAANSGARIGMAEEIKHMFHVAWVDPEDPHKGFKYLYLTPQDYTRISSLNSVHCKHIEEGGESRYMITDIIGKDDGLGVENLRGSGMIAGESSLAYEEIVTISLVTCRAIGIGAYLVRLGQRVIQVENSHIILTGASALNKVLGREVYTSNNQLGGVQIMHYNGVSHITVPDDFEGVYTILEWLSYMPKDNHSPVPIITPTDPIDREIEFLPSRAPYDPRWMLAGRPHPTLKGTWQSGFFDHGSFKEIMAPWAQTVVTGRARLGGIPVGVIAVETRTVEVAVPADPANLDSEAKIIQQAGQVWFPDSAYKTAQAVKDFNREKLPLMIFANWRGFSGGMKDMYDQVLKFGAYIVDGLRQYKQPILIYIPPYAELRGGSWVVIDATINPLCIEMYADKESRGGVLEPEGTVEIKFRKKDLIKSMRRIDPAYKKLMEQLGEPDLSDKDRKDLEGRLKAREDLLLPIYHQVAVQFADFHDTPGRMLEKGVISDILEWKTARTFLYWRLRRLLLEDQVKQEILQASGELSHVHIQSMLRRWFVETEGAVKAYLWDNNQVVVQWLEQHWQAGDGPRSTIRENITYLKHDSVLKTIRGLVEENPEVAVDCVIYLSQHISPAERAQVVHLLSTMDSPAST
row,Compound,IC50 [nM]
1,CC(=O)N[C@@H](C)c1ccc(C2CCN(c3ncc(-c4ccc(C#N)s4)cc3F)CC2)cc1 [Example 10.309],80
2,CC(=O)N[C@@H](C)c1ccc(C2CCN(c3ccc(-c4ccc(F)cc4)cn3)CC2)cc1 [Example 10.310],40
3,CC(=O)N[C@@H](C)c1ccc(C2CCN(c3ncc(-c4ccc(F)cc4)cc3F)CC2)cc1 [Example 10.311],180
4,CC(=O)N[C@@H](C)c1ccc(C2CCN(c3ccc(-c4ccc5c(c4)OCO5)cn3)CC2)cc1 [Example 10.312],160
5,CC(=O)N[C@@H](C)c1ccc(C2CCN(c3ncc(-c4ccc5c(c4)OCO5)cc3F)CC2)cc1 [Example 10.313],120
6,CC(=O)N[C@@H](C)c1ccc(C2CCN(c3ccc(-c4ccc(C)cc4)cn3)CC2)cc1 [Example 10.314],280
7,CC(=O)N[C@@H](C)c1ccc(C2CCN(c3ncc(-c4ccc(C)cc4)cc3F)CC2)cc1 [Example 10.315],120
8,CCCOc1cc(N2CCC(c3ccc([C@H](C)NC(C)=O)cc3)CC2)ncn1 [Example 11.1],180
9,CC(=O)N[C@@H](C)c1ccc(C2CCN(c3cc(OC(C)C)ncn3)CC2)cc1 [Example 11.2],80
10,CC(=O)N[C@@H](C)c1ccc(C2CCN(c3cc(OCCC4CC4)ncn3)CC2)cc1 [Example 11.3],250
11,CC(=O)N[C@@H](C)c1ccc(C2CCN(c3ccnc(OCCC4CC4)n3)CC2)cc1 [Example 11.4],450
12,CC(=O)N[C@@H](C)c1ccc(C2CCN(c3cc(Oc4ccc(F)cc4)ncn3)CC2)cc1 [Example 11.5],200
13,CC(=O)N[C@@H](C)c1ccc(C2CCN(c3ccnc(Oc4ccc(F)cc4)n3)CC2)cc1 [Example 11.6],180
14,CC(=O)N[C@@H](C)c1ccc(C2CCN(c3cc(OC4CCCC4)ncn3)CC2)cc1 [Example 11.7],170
15,CC(=O)N[C@@H](C)c1ccc(C2CCN(c3ccnc(OC4CCCC4)n3)CC2)cc1 [Example 11.8],490
16,CC(=O)N[C@@H](C)c1ccc(C2CCN(c3ccnc(OCC4CCCC4)n3)CC2)cc1 [Example 11.9],380
17,CC(=O)N[C@@H](C)c1ccc(C2CCN(c3cc(OCC4CCCC4)ncn3)CC2)cc1 [Example 11.10],270
18,CC(=O)N[C@@H](C)c1ccc(C2CCN(c3ccnc(OCCC(C)(C)C)n3)CC2)cc1 [Example 11.11],820
19,CC(=O)N[C@@H](C)c1ccc(C2CCN(c3cc(OCCC(C)(C)C)ncn3)CC2)cc1 [Example 11.12],300

row,Compound,IC50 [nM]
1,CC(=O)N[C@@H](C)c1ccc(C2CCN(c3ccnc(OCCc4ccccc4)n3)CC2)cc1 [Example 11.13],4600
2,CC(=O)N[C@@H](C)c1ccc(C2CCN(c3cc(OCCc4ccccc4)ncn3)CC2)cc1 [Example 11.14],3500
3,CC(=O)N[C@@H](C)c1ccc(C2CCN(c3cc(OCC(C)C)ncn3)CC2)cc1 [Example 11.15],230
4,CC(=O)N[C@@H](C)c1ccc(C2CCN(c3ccnc(OCC(C)C)n3)CC2)cc1 [Example 11.16],430
5,CC(=O)N[C@@H](C)c1ccc(C2CCN(c3cc(O[C@H]4CCOC4)ncn3)CC2)cc1 [Example 11.17],1200
6,CC(=O)N[C@@H](C)c1ccc(C2CCN(c3ccnc(O[C@H]4CCOC4)n3)CC2)cc1 [Example 11.18],6200
7,CC#CCOc1cc(N2CCC(c3ccc([C@H](C)NC(C)=O)cc3)CC2)ncn1 [Example 11.19],880
8,CC#CCOc1nccc(N2CCC(c3ccc([C@H](C)NC(C)=O)cc3)CC2)n1 [Example 11.20],1300
9,CCC(CC)Oc1nccc(N2CCC(c3ccc([C@H](C)NC(C)=O)cc3)CC2)n1 [Example 11.21],890
10,CCC(CC)Oc1cc(N2CCC(c3ccc([C@H](C)NC(C)=O)cc3)CC2)ncn1 [Example 11.22],820
11,CC(=O)N[C@@H](C)c1ccc(C2CCN(c3ccnc(OCc4ccccc4)n3)CC2)cc1 [Example 11.23],1500
12,CC(=O)N[C@@H](C)c1ccc(C2CCN(c3cc(OCc4ccccc4)ncn3)CC2)cc1 [Example 11.24],370
13,CC(=O)N[C@@H](C)c1ccc(C2CCN(c3cc(Oc4ccccc4F)ncn3)CC2)cc1 [Example 11.25],240
14,CC(=O)N[C@@H](C)c1ccc(C2CCN(c3ccnc(Oc4ccccc4F)n3)CC2)cc1 [Example 11.26],380
15,CC(=O)N[C@@H](C)c1ccc(C2CCN(c3cc(Oc4cccc(F)c4)ncn3)CC2)cc1 [Example 11.27],300
16,CC(=O)N[C@@H](C)c1ccc(C2CCN(c3ccnc(Oc4cccc(F)c4)n3)CC2)cc1 [Example 11.28],350
17,COCCOc1cc(N2CCC(c3ccc([C@H](C)NC(C)=O)cc3)CC2)ncn1 [Example 11.29],3800
18,COCCOc1nccc(N2CCC(c3ccc([C@H](C)NC(C)=O)cc3)CC2)n1 [Example 11.30],8400
19,COc1cccc(Oc2cc(N3CCC(c4ccc([C@H](C)NC(C)=O)cc4)CC3)ncn2)c1 [Example 11.31],690

row,Compound,IC50 [nM]
1,COc1cccc(Oc2nccc(N3CCC(c4ccc([C@H](C)NC(C)=O)cc4)CC3)n2)c1 [Example 11.32],1100
2,CC(=O)N[C@@H](C)c1ccc(C2CCN(c3cc(OCc4cccnc4)ncn3)CC2)cc1 [Example 11.33],590
3,CC(=O)N[C@@H](C)c1ccc(C2CCN(c3ccnc(OCc4cccnc4)n3)CC2)cc1 [Example 11.34],23200
4,CC(=O)N[C@@H](C)c1ccc(C2CCN(c3cc(OCC4(C#N)CC4)ncn3)CC2)cc1 [Example 11.35],710
5,CCOc1cc(N2CCC(c3ccc([C@H](C)NC(C)=O)cc3)CC2)ncn1 [Example 11.36],580
6,CCOc1nccc(N2CCC(c3ccc([C@H](C)NC(C)=O)cc3)CC2)n1 [Example 11.37],930
7,CC(=O)N[C@@H](C)c1ccc(C2CCN(c3ccnc(OC(C)C)n3)CC2)cc1 [Example 11.38],560
8,CC(=O)N[C@@H](C)c1ccc(C2CCN(c3ccnc(NC(C)c4ccccc4)n3)CC2)cc1 (some centres unmarked) [Example 11.39],6600
9,CC(=O)N[C@@H](C)c1ccc(C2CCN(c3cc(NC(C)c4ccccc4)ncn3)CC2)cc1 (some centres unmarked) [Example 11.40],8100
10,CCCNc1nccc(N2CCC(c3ccc([C@H](C)NC(C)=O)cc3)CC2)n1 [Example 11.41],3100
11,CCCNc1cc(N2CCC(c3ccc([C@H](C)NC(C)=O)cc3)CC2)ncn1 [Example 11.42],7100
12,CC(=O)N[C@@H](C)c1ccc(C2CCN(c3ccnc(NC(C)C)n3)CC2)cc1 [Example 11.43],3300
13,CC(=O)N[C@@H](C)c1ccc(C2CCN(c3cc(NC(C)C)ncn3)CC2)cc1 [Example 11.44],5000
14,CC(=O)N[C@@H](C)c1ccc(C2CCN(c3ccnc(NC4CCC4)n3)CC2)cc1 [Example 11.45],1500
15,CC(=O)N[C@@H](C)c1ccc(C2CCN(c3cc(NC4CCC4)ncn3)CC2)cc1 [Example 11.46],2800
16,CC(=O)N[C@@H](C)c1ccc(C2CCN(c3ccnc(N(C)C(C)C)n3)CC2)cc1 [Example 11.47],540
17,CC(=O)N[C@@H](C)c1ccc(C2CCN(c3cc(N(C)C(C)C)ncn3)CC2)cc1 [Example 11.48],580
18,CC(=O)N[C@@H](C)c1ccc(C2CCN(c3ccnc(N4CCc5ccccc54)n3)CC2)cc1 [Example 11.49],350
